Measurements as given in the supplement of paper PMC10307832.

Legend:
Assay in all cases: relative viability (nuclei count vs DMSO), 5 days (fraction); higher = more cells survive
Vemurafenib + Trametinib = compound: CCCS(=O)(=O)Nc1ccc(F)c(C(=O)c2c[nH]c3ncc(-c4ccc(Cl)cc4)cc23)c1F [Vemurafenib] + CC(=O)Nc1cccc(-n2c(=O)n(C3CC3)c(=O)c3c(Nc4ccc(I)cc4F)n(C)c(=O)c(C)c32)c1 [Trametinib] (partner 0.02 µM)
Summary of the method: (§1)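 A single step with final 0.05% Triton X-100, 1% formaldehyde and 1 ug/ml Hoechst fixed the cells and stained nuclei 5 days after treatment. Lung cancer cell lines in 1536-well plates had been treated by pin tool the day after seeding with one drug alone or a fixed anchor-drug dose plus five library-drug doses (not always all listed) in √10 steps, and nuclei were counted on 4× images. Relative viability is the ratio of nuclei in treated wells to nuclei in vehicle wells, taken as the median of duplicate plates.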

OSI-027 + Phenformin = compound: COc1cccc2cc(-c3nc([C@H]4CC[C@H](C(=O)O)CC4)n4ncnc(N)c34)[nH]c12 [OSI-027] + N=C(N)NC(=N)NCCc1ccccc1 [Phenformin] (partner 250 µM)
Summary of the method: as §1

Alpelisib + Luminespib = compound: Cc1nc(NC(=O)N2CCC[C@H]2C(N)=O)sc1-c1ccnc(C(C)(C)C(F)(F)F)c1 [Alpelisib] + CCNC(=O)c1noc(-c2cc(C(C)C)c(O)cc2O)c1-c1ccc(CN2CCOCC2)cc1 [Luminespib] (partner 0.01 µM)
Summary of the method: as §1

Alpelisib + Pemetrexed = compound: Cc1nc(NC(=O)N2CCC[C@H]2C(N)=O)sc1-c1ccnc(C(C)(C)C(F)(F)F)c1 [Alpelisib] + Nc1nc2[nH]cc(CCc3ccc(C(=O)N[C@@H](CCC(=O)O)C(=O)O)cc3)c2c(=O)[nH]1 [Pemetrexed] (partner 0.2 µM)
Summary of the method: as §1

Cell Line | relative viability (Vemurafenib + Trametinib; first compound 0.3162 µM) | relative viability (Vemurafenib + Trametinib; first compound 1 µM) | relative viability (OSI-027 + Phenformin; first compound 0.01 µM) | relative viability (OSI-027 + Phenformin; first compound 0.03162 µM) | relative viability (OSI-027 + Phenformin; first compound 0.1 µM) | relative viability (OSI-027 + Phenformin; first compound 0.3162 µM) | relative viability (OSI-027 + Phenformin; first compound 1 µM) | relative viability (Alpelisib + Luminespib; first compound 0.04 µM) | relative viability (Alpelisib + Luminespib; first compound 0.1265 µM) | relative viability (Alpelisib + Luminespib; first compound 0.4 µM) | relative viability (Alpelisib + Luminespib; first compound 1.265 µM) | relative viability (Alpelisib + Luminespib; first compound 4 µM) | relative viability (Alpelisib + Pemetrexed; first compound 0.04 µM) | relative viability (Alpelisib + Pemetrexed; first compound 0.1265 µM) | relative viability (Alpelisib + Pemetrexed; first compound 0.4 µM) | relative viability (Alpelisib + Pemetrexed; first compound 1.265 µM) | relative viability (Alpelisib + Pemetrexed; first compound 4 µM) | relative viability (Vemurafenib + Trametinib; first compound 0.03162 µM) | relative viability (Vemurafenib + Trametinib; first compound 0.1 µM)
PC-3 [JPC-3] | 0.649 | 0.802 | 0.482 | 0.465 | 0.49 | 0.449 | 0.433 | 0.731 | 0.567 | 0.739 | 0.687 | 0.622 | 1.23 | 0.559 | 1.12 | 0.969 | 0.801 |  | 
PC-14 | 0.862 | 0.803 | 0.582 | 0.466 | 0.488 | 0.392 | 0.276 | 0.154 |  | 0.168 | 0.13 | 0.144 | 0.157 | 0.145 | 0.134 | 0.137 | 0.138 | 0.735 | 
RERF-LC-KJ | 0.872 | 0.783 | 0.458 | 0.423 | 0.383 | 0.383 | 0.361 | 1.32 | 1.16 | 1.36 | 0.917 | 1.03 | 0.504 | 0.477 | 0.456 | 0.406 | 0.464 | 0.826 | 0.921
SK-LU-1 | 0.459 | 0.432 | 0.515 | 0.467 | 0.447 | 0.318 | 0.219 | 0.199 | 0.222 | 0.202 | 0.175 | 0.152 | 1.04 | 0.987 | 0.938 | 0.909 | 0.955 | 0.468 | 0.515
SK-MES-1 | 0.589 | 0.763 | 0.637 | 0.608 | 0.64 | 0.576 | 0.305 | 0.675 | 0.561 | 0.733 | 0.527 | 0.464 | 0.954 | 0.955 | 1.07 | 0.868 | 0.689 | 0.569 | 
SW 900 | 0.778 | 0.868 |  | 0.45 | 0.633 | 0.474 | 0.347 | 0.163 | 0.168 | 0.177 | 0.138 | 0.173 | 0.513 |  | 0.476 | 0.497 | 0.405 | 0.939 | 0.593
SW 1573 | 0.679 | 0.49 | 0.406 | 0.286 | 0.343 | 0.312 | 0.191 | 0.175 | 0.215 | 0.285 | 0.198 | 0.115 | 0.837 | 0.871 | 0.812 | 0.741 | 0.711 | 0.556 | 0.612
